Test results published in patent US5990158A, “Carboxylic acid derivatives, method of manufacturing the same and therapeutic agents containing these compounds” (Kotobuki Seiyaku Co., Ltd., priority 1996, dated 1999).

Columns and labels:
MMP-2 (gelatinase A) = biological target: T1, MMP-2 (gelatinase A) (Homo sapiens, UniProt P08253); test: MMP-2 (gelatinase A) inhibitory activity, FITC-labeled type IV collagen degradation; format: biochemical; details: 50% inhibition of collagen type IV degradation; activated pro MMP-2 from transfected COS-1 cells; 42° C., 4 h
T1 construct: made in house; host or cells: COS-1 cells transfected with human pro-MMP-2 cDNA (secreted into culture medium)
T1 sequence (P08253 110-660): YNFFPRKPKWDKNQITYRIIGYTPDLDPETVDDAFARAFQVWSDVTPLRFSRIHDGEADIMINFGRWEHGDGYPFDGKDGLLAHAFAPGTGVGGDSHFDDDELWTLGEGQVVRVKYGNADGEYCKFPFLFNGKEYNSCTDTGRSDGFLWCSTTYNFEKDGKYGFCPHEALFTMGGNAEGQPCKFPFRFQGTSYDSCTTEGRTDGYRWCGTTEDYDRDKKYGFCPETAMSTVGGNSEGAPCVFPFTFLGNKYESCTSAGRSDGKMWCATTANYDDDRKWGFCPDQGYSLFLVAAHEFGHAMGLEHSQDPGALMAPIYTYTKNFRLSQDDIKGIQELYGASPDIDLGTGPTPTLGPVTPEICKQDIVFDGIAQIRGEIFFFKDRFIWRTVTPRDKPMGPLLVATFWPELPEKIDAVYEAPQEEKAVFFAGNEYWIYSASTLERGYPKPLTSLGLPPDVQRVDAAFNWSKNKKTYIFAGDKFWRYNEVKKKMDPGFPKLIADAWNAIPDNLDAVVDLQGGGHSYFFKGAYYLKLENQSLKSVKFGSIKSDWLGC
Protocol: (§1) Experiment 2: MMP-2 (gelatinase A) and MMP-9 (gelatinase B) inhibitory activities.
(§2) Pro MMP-2 was obtained from culture medium separated from human pro-MMP-2 cDNA tranfected COS-1 cells. It was activated by 1 mM (p-aminophenyl)mercury acetic acid, and MMP-9, derived human fibrosarcome,was purchased from Yagai Co. Ltd. Inhibition of both enzyme activities were estimated by enzyme assay using type IV collagenase activity assay kit (Yagai Co. Ltd., Biswaz, C. et al., J. Cell.Biochem., 28, 39 (1984)). MMP-2 or MMP-9 (0.01 U/ml), test compound (several concentrations), and FITC-labeled type IV collagen (derived bovine placenta, 25 μg) were incubated in 100 μl of 0.05M Tris - HCl buffer (pH 7.5) containing 200 mM NaCl and 5 mM CaCl2 at 42° C. for 4 h. Inhibitory activity of compound was evaluated by same as that of MMP-1 assay. Unchanged type IV collagen was precipitated by centrifugation, and the degradation percent of substrate was calculated by comparison with a fluorescence intensity of heat denatured substrate as 100%. Inhibition of enzyme activity was expressed as an IC50 value which was the concentration of test compound necessary to produce 50% inhibition of collagen type IV degradation by enzyme.

MMP-9 (gelatinase B) = biological target: T2, MMP-9 (gelatinase B) (Homo sapiens, UniProt P14780); test: MMP-9 (gelatinase B) inhibitory activity, FITC-labeled type IV collagen degradation; format: biochemical; details: 50% inhibition of collagen type IV degradation; MMP-9 derived from human fibrosarcoma; 42° C., 4 h
T2 construct: purchased Yagai Co. Ltd; host or cells: human fibrosarcoma
Protocol: as §1, §2

T2 sequence (P14780 94-707): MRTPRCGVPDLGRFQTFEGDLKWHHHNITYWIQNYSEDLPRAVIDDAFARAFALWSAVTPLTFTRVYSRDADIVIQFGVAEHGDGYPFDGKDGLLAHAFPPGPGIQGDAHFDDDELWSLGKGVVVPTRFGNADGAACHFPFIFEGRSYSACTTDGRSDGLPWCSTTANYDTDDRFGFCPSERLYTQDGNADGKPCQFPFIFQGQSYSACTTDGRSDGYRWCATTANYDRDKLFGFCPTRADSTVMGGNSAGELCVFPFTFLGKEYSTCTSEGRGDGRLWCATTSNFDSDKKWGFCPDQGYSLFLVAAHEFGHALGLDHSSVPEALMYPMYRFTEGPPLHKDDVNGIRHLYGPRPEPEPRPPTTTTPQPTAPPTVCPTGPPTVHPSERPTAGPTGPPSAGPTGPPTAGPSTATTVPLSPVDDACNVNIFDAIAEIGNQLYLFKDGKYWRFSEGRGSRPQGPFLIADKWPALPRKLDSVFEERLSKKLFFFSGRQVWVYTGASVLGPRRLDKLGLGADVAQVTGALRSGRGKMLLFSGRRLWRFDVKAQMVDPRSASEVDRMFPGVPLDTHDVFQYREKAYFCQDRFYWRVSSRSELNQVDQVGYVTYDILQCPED

IC50 (MMP-2 (gelatinase A)) [nM] | IC50 (MMP-9 (gelatinase B)) [nM] | Structure (SMILES)
> 10000 | 1500 | CNC(=O)[C@@H]1Cc2ccccc2CN1C(=O)[C@H](CCCOc1ccc(OC)cc1)CC(=O)O [Compound 27, N-[(2R)-2-(1'-Carboxymethyl)-5-[(4-methoxyphenyl)oxy]pentanoyl]-L-tetrahydroisoquinoline N-Methylamide]
3200 | 400 | CNC(=O)[C@H](Cc1ccccc1)NC(=O)[C@H](CCc1ccc2cccccc1-2)CC(=O)NO [Compound 32, N-[(2R)-2-(2'-Hydroxyamino-2'-oxo-ethyl)-4-(azulene-1-yl)-butyloyl]-L-phenylanine N-Methylamide]
160 | 18 | CNC(=O)[C@H](Cc1ccc(OC)cc1)NC(=O)[C@H](CCc1ccc2cccccc1-2)CC(=O)NO [Compound 33, (2S)-2-[(2R)-2-(2'-Hydroxyamino-2'-oxo-ethyl)-4-(azulene-1-yl)butyloyl]amino-3-(4-methoxy)phenylpropanoylmethylamide]
760 | 52 | CNC(=O)[C@@H](NC(=O)[C@H](CCc1ccc2cccccc1-2)CC(=O)NO)C(C)(C)C [Compound 34, N-[(2R)-2-(2'-Hydroxyamino-2'-oxo-ethyl)-4-(azulene-1-yl)-butyloyl]-L-tert-leucine N-Methylamide]
1300 | 2500 | CNC(=O)[C@H](Cc1ccccc1)NC(=O)[C@H](CCCc1ccc2cccccc1-2)CC(=O)NO [Compound 35, N-[(2R)-2-(2'-Hydroxyamino-2'-oxo-ethyl)-5-(azulene-1-yl)-pentanoyl]-L-phenylalanine N-Methylamide]
180 | 24 | CCOc1ccc(C[C@H](NC(=O)[C@H](CCc2ccc3cccccc2-3)CC(=O)NO)C(=O)NC)cc1 [Compound 36, (2S)-2-[(2R)-2-(2'-Hydroxyamino-2'-oxo-ethyl)-4-(azulene-1-yl)butyloyl]amino-3-(4-ethoxy)phenylpropanoylmethylamide]
2700 | 2900 | CNC(=O)[C@H](Cc1ccccc1)NC(=O)[C@H](CCCCc1ccc2cccccc1-2)CC(=O)NO [Compound 37, N-[(2R)-2-(2'-Hydroxyamino-2'-oxo-ethyl)-6-(azulene-1-yl)-hexanoyl]-L-phenylalanine N-Methylamide]
13 | 2.3 | CNC(=O)[C@H](Cc1ccccc1)NC(=O)[C@H](CCOc1ccc(OC)cc1)CC(=O)NO [Compound 38, N-[(2R)-2-(2'-Hydroxyamino-2'-oxo-ethyl)-4-[(4-methoxyphenyl)oxy]butyloyl]-L-phenylalanine N-Methylamide]
8.8 | 1.4 | CCOc1ccc(OCC[C@H](CC(=O)NO)C(=O)N[C@@H](Cc2ccccc2)C(=O)NC)cc1 [Compound 39, N-[(2R)-2-(2'-Hydroxyamino-2'-oxo-ethyl)-4-[(4-ethoxy-phenyl)oxy]butyloyl]-L-phenylalanine N-Methylamide]
1 | 0.18 | CNC(=O)[C@H](Cc1ccccc1)NC(=O)[C@H](CCCOc1ccc(OC)cc1)CC(=O)NO [Compound 40, N-[(2R)-2-(2'-Hydroxyamino-2'-oxo-ethyl)-5-[(4-methoxyphenyl)oxy]pentanoyl]-L-phenylalanine N-Methylamide]
3.1 | 0.13 | COc1ccc(OCCC[C@H](CC(=O)NO)C(=O)N[C@@H](Cc2ccccc2)C(=O)NC(C)(C)C)cc1 [Compound 41, N-[(2R)-2-(2'-Hydroxyamino-2'-oxo-ethyl)-5-[(4-methoxyphenyl)oxy]pentanoyl]-L-phenylalanine N-tert-Butylamide]
0.36 | 0.051 | COc1ccc(OCCC[C@H](CC(=O)NO)C(=O)N[C@@H](Cc2ccccc2)C(=O)NCCS(N)(=O)=O)cc1 [Compound 42, 2-[N-[(2R)-2-(2'-Hydroxyamino-2'-oxo-ethyl)-5-[(4-methoxyphenyl)oxy]pentanoyl]-L-phenylalanyl]amino-ethanesulfonamide]
0.97 | 0.14 | CCOc1ccc(OCCC[C@H](CC(=O)NO)C(=O)N[C@@H](Cc2ccccc2)C(=O)NC)cc1 [Compound 43, N-[(2R)-2-(2'-Hydroxyamino-2'-oxo-ethyl)-5-[(4-ethoxy-phenyl)oxy]pentanoyl]-L-phenylalanine N-Methylamide]
1.3 | 0.41 | CNC(=O)[C@H](Cc1ccccc1)NC(=O)[C@H](CCCCOc1ccc(OC)cc1)CC(=O)NO [Compound 44, N-[(2R)-2-(2'-Hydroxyamino-2'-oxo-ethyl)-6-[(4-methoxyphenyl)oxy]hexanoyl]-L-phenylalanine N-Methylamide]
4 | 0.72 | CCOc1ccc(OCCCC[C@H](CC(=O)NO)C(=O)N[C@@H](Cc2ccccc2)C(=O)NC)cc1 [Compound 45, N-[(2R)-2-(2'-Hydroxyamino-2'-oxo-ethyl)-6-[(4-ethoxy-phenyl)oxy]hexanoyl]-L-phenylalanine N-Methylamide]
250 | 160 | C=CCOc1ccc(OCCCC[C@H](CC(=O)NO)C(=O)N[C@@H](Cc2ccccc2)C(=O)NC)cc1 [Compound 46, N-[(2R)-2-(2'-Hydroxyamino-2'-oxo-ethyl)-6-[(4-allyloxy-phenyl)oxy]hexanoyl]-L-phenylalanine N-Methylamide]
11 | 1.2 | CNC(=O)[C@H](Cc1ccc(OC)cc1)NC(=O)[C@H](CCOc1ccc(OC)cc1)CC(=O)NO [Compound 47, (2S)-2-[(2R)-2-(2'-Hydroxyamino-2'-oxo-ethyl)-4-[(4-methoxyphenyl)oxy]-butyloyl]amino-3-(4-methoxy)phenylpropanoylmethylamide]
9 | 0.15 | CNC(=O)[C@H](Cc1ccc(OC)cc1)NC(=O)[C@H](CCCOc1ccc(OC)cc1)CC(=O)NO [Compound 48, (2S)-2-[(2R)-2-(2'-Hydroxyamino-2'-oxo-ethyl)-5-[(4-methoxyphenyl)oxy]-pentanoyl]amino-3-(4-methoxy)phenyl-propanoylmethylamide]
26 | 0.42 | COc1ccc(C[C@H](NC(=O)[C@H](CCCOc2ccc(OC)cc2)CC(=O)NO)C(=O)NC(C)(C)C)cc1 [Compound 49, (2S)-2-[(2R)-2-(2'-Hydroxyamino-2'-oxo-ethyl)-5-[(4-methoxyphenyl)oxy]-pentanoyl]amino-3-(4-methoxy)phenyl-propanoyl-tert-butylamide]
0.45 | 0.052 | COc1ccc(C[C@H](NC(=O)[C@H](CCCOc2ccc(OC)cc2)CC(=O)NO)C(=O)NCCS(N)(=O)=O)cc1 [Compound 50, 2-[(2S)-2-[(2R)-2-(2'-Hydroxyamino-2'-oxo-ethyl)-5-[(4-methoxyphenyl)oxy]-pentanoyl]amino-3-(4-methoxy)phenylpropanoyl]amino-ethanesulfonamide]
2.5 | 0.28 | CNC(=O)[C@H](Cc1ccc(OC)cc1)NC(=O)[C@H](CCCCOc1ccc(OC)cc1)CC(=O)NO [Compound 51, (2S)-2-[(2R)-2-(2'-Hydroxyamino-2'-oxo-ethyl)-6-[(4-methoxyphenyl)oxy]-hexanoyl]amino-3-(4-methoxy)phenylpropanoylmethylamide]
1 | 0.12 | CCOc1ccc(C[C@H](NC(=O)[C@H](CCCOc2ccc(OC)cc2)CC(=O)NO)C(=O)NC)cc1 [Compound 52, (2S)-2-[(2R)-2-(2'-Hydroxyamino-2'-oxo-ethyl)-5-[(4-methoxyphenyl)oxy]-pentanoyl]amino-3-(4-ethoxy)phenylpropanoylmethylamide]
3.2 | 0.32 | CCOc1ccc(C[C@H](NC(=O)[C@H](CCCCOc2ccc(OC)cc2)CC(=O)NO)C(=O)NC)cc1 [Compound 53, (2S)-2-[(2R)-2-(2'-Hydroxyamino-2'-oxo-ethyl)-6-[(4-methoxyphenyl)oxy]-hexanoyl]amino-3-(4-ethoxy)phenylpropanoylmethylamide]
5.6 | 0.11 | CNC(=O)[C@@H](NC(=O)[C@H](CCCOc1ccc(OC)cc1)CC(=O)NO)C(C)(C)C [Compound 54, N-[(2R)-2-(2'-Hydroxyamino-2'-oxo-ethyl)-5-[(4-methoxyphenyl)oxy]-pentanoyl]-L-tert-leucine N-Methylamide]
